Measurements published in patent US4966900A, “Cephalosporin β-lactam compound and medicinal composition” (priority 1986, dated 1990).
Values after ≈ are worked out from the molar mass of the structure shown. Structures can show the parent of a compound that is named as a salt. Where two headings read alike, the source gives them in different places.

Key:
E. colacae GN7471 = test: MIC
P. maltophilia OF247 = test: MIC; conditions: Stenotrophomonas maltophilia
K. pneumoniae 4at521 = test: MIC
C. freundii 1U692 = test: MIC
E. coli ML4707 = test: MIC; conditions: Escherichia coli, ML4707, E. coli ML4707
E. coli GN5482 = test: MIC; conditions: Escherichia coli, GN5482, E. coli GN5482
C. freundii 1R524 = test: MIC
E. cloacae 5D63-2 = test: MIC
in vivo = test: in vivo; set-up: species or system Macaco; conditions: monkey, 20 mg/kg
Experimental: Each of 20 mg/kg of the compounds obtained in Example 2, Example 25 and Example 28 was administered parenterally to Macaco and the half-time in blood was measured.
The concentrations of the compounds were measured according to HPLC method. Novapack C18 or Microbondapack C18 (trade name, produced by Waters Co.) was used as a column. Further, cefpiramide was used as a control drug.

C. freundii 1R526 = test: MIC
C. freundii 1U589 = test: MIC
S. aureus Smith = test: MIC; conditions: Staphylococcus aureus
E. cloacae 1V25 = test: MIC; conditions: Enterobacter cloacae
P. aeruginosa 5D58-1 = test: MIC; conditions: Pseudomonas aeruginosa, 5D581, P. aeruginosa 5D58-1
E. coli NIHJ JC-2 = test: MIC; format: cell-based; conditions: Escherichia coli, NIHJJC2, Table 2, sodium salt
Experimental: (§1) The minimum inhibition concentrations (MIC) of the compounds obtained in Example 1 and Example 2 were measured according to the standard method of Japanese Chemotherapy Association.

A. xylosoxidans OF1001 = test: MIC; format: cell-based; conditions: Achromobacter xylosoxidans, Table 2, sodium salt
Experimental: as §1

A. calcoaceticu OF1063 = test: MIC; format: cell-based; conditions: Table 2, sodium salt
Experimental: as §1

C. freundii 1R523 = test: MIC
C. freundii 1R527 = test: MIC
C. freundii GN7391 = test: MIC; conditions: Citrobacter freundii, GN7391, C. freundii GN7391
E. cloacae 1Y247 = test: MIC; format: cell-based
Experimental: (§2) The minimum inhibition concentrations (MIC) of the compounds obtained in the respective examples described above were measured according to the standard method of Japanese Chemotherapy Association.

E. cloacae 5D52-2 = test: MIC
P. cepacia OF189 = test: MIC; conditions: Burkholderia cepacia, OF189, P. cepacia OF189
C. freundii 5D60-1 = test: MIC
P. aeruginosa GN10362 = test: MIC
P. aeruginosa 4au542 = test: MIC; conditions: Pseudomonas aeruginosa, 4AU542, P. aeruginosa 4au542
E. cloacae 908RN = test: MIC; conditions: Enterobacter cloacae
S. marcescens GN10857 = test: MIC; conditions: Serratia marcescens, GN10857, S. marcescens GN10857
P. vulgaris GN7919 = test: MIC
S. aureus IAA498 = test: MIC; format: cell-based; conditions: Staphylococcus aureus, Table 5
Experimental: as §2

[1] = Enterobacter cloacae, Table 3, sodium salt, read-out: MIC
[2] = Pseudomonas aeruginosa, GN10362
[3] = E. cloacae 908RN, Table 3, sodium salt
[4] = E. colacae 908RN, Table 2, sodium salt

## Cc1cc(SCC2=C(C(=O)O)N3C(=O)C(NC(=O)C(=NOC(C)(C)C(=O)NNC(=O)c4ccc(O)c(O)c4)c4csc(N)n4)C3SC2)n2nc(C(=O)O)nc2n1 (stereo not drawn) [Example 2]
E. colacae GN7471; Table 2, sodium salt
  MIC: 6.25 µg/mL
P. maltophilia OF247; Table 2, sodium salt
  MIC: 0.2 µg/mL
K. pneumoniae 4at521; Klebsiella pneumoniae, 4AT521
  MIC: 0.012 µg/mL (≈ 0.0145 µM)
C. freundii 1U692; Citrobacter freundii, 1U692
  MIC: 1.56 µg/mL (≈ 1.88 µM)
E. coli ML4707; Table 2, sodium salt
  MIC: 0.01 µg/mL
E. coli GN5482; Table 2, sodium salt
  MIC: 0.1 µg/mL
C. freundii 1R524; Citrobacter freundii, 1R524
  MIC: 0.78 µg/mL (≈ 0.942 µM)
E. cloacae 5D63-2; Enterobacter cloacae, 5D632
  MIC: 0.78 µg/mL (≈ 0.942 µM)
In vivo
  half-life: 5.3 h
C. freundii 1R526; Citrobacter freundii, 1R526
  MIC: 0.78 µg/mL (≈ 0.942 µM)
C. freundii 1U589; Citrobacter freundii, 1U589
  MIC: 0.78 µg/mL (≈ 0.942 µM)
S. aureus Smith; Table 2, sodium salt
  MIC: 6.25 µg/mL
E. cloacae 1V25
  MIC: 6.25 µg/mL (≈ 7.55 µM)
P. aeruginosa 5D58-1; Table 2, sodium salt
  MIC: 0.39 µg/mL
E. coli NIHJ JC-2
  MIC: 0.1 µg/mL
A. xylosoxidans OF1001
  MIC: 0.78 µg/mL
A. calcoaceticu OF1063
  MIC: 3.13 µg/mL
C. freundii 1R523; Citrobacter freundii, 1R523
  MIC: 1.56 µg/mL (≈ 1.88 µM)
C. freundii 1R527; Citrobacter freundii, 1R527
  MIC: 0.78 µg/mL (≈ 0.942 µM)
C. freundii GN7391; Table 2, sodium salt
  MIC: 12.5 µg/mL
C. freundii GN7391; Table 3, sodium salt
  MIC: 12.5 µg/mL
E. cloacae 1Y247; [1]
  MIC: 6.25 µg/mL
E. cloacae 5D52-2; Enterobacter cloacae, 5D522
  MIC: 0.2 µg/mL (≈ 0.242 µM)
P. cepacia OF189; Table 2, sodium salt
  MIC: < 0.006 µg/mL
C. freundii 5D60-1; Citrobacter freundii, 5D601
  MIC: 1.56 µg/mL (≈ 1.88 µM)
P. aeruginosa GN10362; [2]
  MIC: 0.2 µg/mL (≈ 0.242 µM)
P. aeruginosa 4au542; Table 2, sodium salt
  MIC: 0.2 µg/mL
E. cloacae 908RN; [3]
  MIC: 3.13 µg/mL
E. cloacae 908RN; [4]
  MIC: 1.56 µg/mL
S. marcescens GN10857; Table 2, sodium salt
  MIC: 0.2 µg/mL
P. vulgaris GN7919; Proteus vulgaris, GN7919
  MIC: 0.78 µg/mL (≈ 0.942 µM)

## Cc1cc(SCC2=C(C(=O)O)N3C(=O)C(NC(=O)C(=NOC(C)(C)C(=O)NNC(=O)c4ccc(O)c(O)c4)c4csc(N)n4)C3SC2)n2ncnc2n1 (stereo not drawn) [Example 12, 7-{2-[2-Amino-1,3-thiazol-4-yl]-2-[1-(3-(3,4-dihydroxybenzoyl)carbazoyl)-1-methylethoxyimino]acetamide}-3-[(5-methyl-s-triazolo[1,5-a]-pyrimidin-7-yl)thiomethyl]-3-cephem-4-carboxylic acid.hydrochloride]
E. colacae GN7471; Table 2, sodium salt
  MIC: 3.13 µg/mL
E. colacae GN7471; Table 5
  MIC: 1.56 µg/mL
P. maltophilia OF247; Table 2, sodium salt
  MIC: 0.78 µg/mL
P. maltophilia OF247; Table 5
  MIC: 0.39 µg/mL
K. pneumoniae 4at521; K. pneumoniae 4at521, Table 5
  MIC: 0.012 µg/mL
K. pneumoniae 4at521; Klebsiella pneumoniae, 4AT521
  MIC: 0.012 µg/mL
C. freundii 1U692; C. freundii 1U692, Table 6
  MIC: 3.13 µg/mL
C. freundii 1U692; Citrobacter freundii, 1U692
  MIC: 3.13 µg/mL
E. coli ML4707; Table 2, sodium salt
  MIC: 0.012 µg/mL
E. coli ML4707; Table 5
  MIC: < 0.006 µg/mL
E. coli GN5482; Table 2, sodium salt
  MIC: 0.1 µg/mL
E. coli GN5482; Table 5
  MIC: 0.012 µg/mL
C. freundii 1R524; C. freundii 1R524, Table 6
  MIC: 0.78 µg/mL
C. freundii 1R524; Citrobacter freundii, 1R524
  MIC: 0.78 µg/mL
E. cloacae 5D63-2; E. cloacae 5D63-2, Table 6
  MIC: 3.13 µg/mL
E. cloacae 5D63-2; Enterobacter cloacae, 5D632
  MIC: 3.13 µg/mL
C. freundii 1R526; C. freundii 1R526, Table 6
  MIC: 1.56 µg/mL
C. freundii 1R526; Citrobacter freundii, 1R526
  MIC: 1.56 µg/mL
C. freundii 1U589; C. freundii 1U589, Table 6
  MIC: 1.56 µg/mL
C. freundii 1U589; Citrobacter freundii, 1U589
  MIC: 1.56 µg/mL
S. aureus Smith; Table 2, sodium salt
  MIC: 0.78 µg/mL
S. aureus Smith; Table 5
  MIC: 3.13 µg/mL
P. aeruginosa 5D58-1; Table 2, sodium salt
  MIC: 0.1 µg/mL
P. aeruginosa 5D58-1; Table 5
  MIC: 0.2 µg/mL
E. coli NIHJ JC-2
  MIC: 0.1 µg/mL
A. xylosoxidans OF1001
  MIC: 0.78 µg/mL
A. calcoaceticu OF1063
  MIC: 12.5 µg/mL
C. freundii 1R523; C. freundii 1R523, Table 6
  MIC: 0.78 µg/mL
C. freundii 1R523; Citrobacter freundii, 1R523
  MIC: 0.78 µg/mL
C. freundii 1R527; C. freundii 1R527, Table 6
  MIC: 0.78 µg/mL
C. freundii 1R527; Citrobacter freundii, 1R527
  MIC: 0.78 µg/mL
C. freundii GN7391; Table 2, sodium salt
  MIC: 12.5 µg/mL
C. freundii GN7391; Table 3, sodium salt
  MIC: 25 µg/mL
C. freundii GN7391; Table 5
  MIC: 6.25 µg/mL
C. freundii GN7391; Table 6
  MIC: 25 µg/mL
S. aureus IAA498
  MIC: 6.25 µg/mL
E. cloacae 1Y247; [1]
  MIC: 25 µg/mL
E. cloacae 1Y247; Table 6
  MIC: 25 µg/mL
E. cloacae 5D52-2; E. cloacae 5D52-2, Table 6
  MIC: 0.2 µg/mL
E. cloacae 5D52-2; Enterobacter cloacae, 5D522
  MIC: 0.2 µg/mL
P. cepacia OF189; Table 2, sodium salt
  MIC: 0.025 µg/mL
P. cepacia OF189; Table 5
  MIC: 0.012 µg/mL
C. freundii 5D60-1; C. freundii 5D60-1, Table 6
  MIC: 3.13 µg/mL
C. freundii 5D60-1; Citrobacter freundii, 5D601
  MIC: 3.13 µg/mL
P. aeruginosa GN10362; P. aeruginosa GN10362, Table 5
  MIC: 0.1 µg/mL
P. aeruginosa GN10362; [2]
  MIC: 0.1 µg/mL
P. aeruginosa 4au542; Table 2, sodium salt
  MIC: 0.1 µg/mL
P. aeruginosa 4au542; Table 5
  MIC: 0.2 µg/mL
E. cloacae 908RN; [3]
  MIC: 3.13 µg/mL
E. cloacae 908RN; E. cloacae 908RN, Table 6
  MIC: 3.13 µg/mL
E. cloacae 908RN; [4]
  MIC: 3.13 µg/mL
E. cloacae 908RN; E. colacae 908RN, Table 5
  MIC: 3.13 µg/mL
S. marcescens GN10857; Table 2, sodium salt
  MIC: 1.56 µg/mL
S. marcescens GN10857; Table 5
  MIC: 0.39 µg/mL
P. vulgaris GN7919; P. vulgaris Gn7919, Table 5
  MIC: 0.78 µg/mL
P. vulgaris GN7919; Proteus vulgaris, GN7919
  MIC: 0.78 µg/mL
